Measurements from patent US12240843B2, “Substituted 1,2,4-triazolo[4,3-a]pyridine derivative and preparation method, herbicidal composition and application thereof” (Qingdao Kingagroot Chemical Compound Co., Ltd., priority 2019, dated 2025).

Tests used:
Assay type in all cases: in vivo
[1] = test system: rice (indica rice huanghuazhan); test: Post-emergence stage crop damage, greenhouse pot spray; settings: for plant damage level, rice (indica rice huanghuazhan), post-emergence: 240 g/ha active ingredient, plus water 450 kg/ha, 3 weeks after application
Protocol: (§1) (1) Experiment on weeding effect in post-emergence stage: monocotyledonous and dicotyledonous weed seeds and major crop seeds (wheat, corn, rice, soybean, cotton, oilseed rape, millet, Sorghum) were placed in plastic pots filled with soil, then covered with 0.5-2 cm of soil, allowed to grow in a good greenhouse environment. After 2 weeks of sowing, the test plants were treated. The tested compounds of the present invention were respectively dissolved in acetone, then added with Tween 80, diluted with a certain amount of water to obtain a solution with a certain concentration, added with 1000 g/ha of emulsified methyl oleate as a synergist, and sprayed with a spray tower onto the plants. After the application, the plants were cultured for 3 weeks in the greenhouse, and then the experimental results of the weeding were listed in Table 2-3.

Digitaria sanguinalis [2] = test: Weeding effect in post-emergence stage, greenhouse pot spray
Protocol: (§2) The above growth control rates are fresh weight control rates.
as §1

Leptochloa chinensis [3] = test: as above
Protocol: as §2, §1

Echinochloa crusgalli [4] = test: as above
Protocol: as §2, §1

[5] = test system: Amaranthus retroflexus L.; test: as above; settings: 240 g/ha active ingredient, plus water 450 kg/ha; weeds 2-3 leaf stage; 3 weeks after application
Protocol: as §2, §1

Digitaria sanguinalis [6] = test: Weed effect in pre-emergence stage; settings: direct seeding of rice; dose not given
Protocol: (§3) Seeds of monocotyledonous and dicotyledonous weeds and main crops (e.g. wheat, corn, rice, soybean, cotton, oilseed rape, millet and Sorghum) were put into a plastic pot loaded with soil and covered with 0.5-2 cm soil. The test compounds of the present invention was dissolved with acetone, then added with tween 80, diluted by a certain amount of water to reach a certain concentration, and sprayed immediately after sowing. The obtained seeds were incubated for 4 weeks in the greenhouse after spraying and the test results were observed. It was observed that the herbicide mostly had excellent effect at the application rate of 250 g a.i./ha, especially to weeds such as Echinochloa crusgalli, Digitaria sanguinalis, Leptochloa chinensis, and Abutilon theophrasti, etc. . . . And many compounds had good selectivity for corn, wheat, rice, soybean, and oilseed rape, etc. . . .

Leptochloa chinensis [7] = test: Weed effect in pre-emergence stage; settings: direct seeding of rice; dose not given
Protocol: as §3

Abutilon theophrasti = test: Weed effect in pre-emergence stage; settings: direct seeding of rice; dose not given
Protocol: as §3

Echinochloa crusgalli [8] = test: Weed effect in pre-emergence stage; settings: direct seeding of rice; dose not given
Protocol: as §3

japonica rice = test: Post-emergence stage crop damage, greenhouse pot spray
From the text: (§4) The activity level criteria for plant damage (i.e., growth control rate) are as follows: • Level 5: growth control rate is above 85%; • Level 4: growth control rate is greater than or equal to 60% and less than 85%; • Level 3: growth control rate is greater than or equal to 40% and less than 60%; • Level 2: growth control rate is greater than or equal to 20% and less than 40%; • Level 1: growth control rate is greater than or equal to 5% and less than 20%; • Level 0: growth control rate is less than 5%.
as §2, §1

rice = test: Pre-emergence stage crop selectivity; settings: dose not given
Protocol: as §3

Setaria viridis = test: Weeding effect in post-emergence stage, greenhouse pot spray
From the text: as §4, §2, §1

[9] = 240 g/ha active ingredient, plus water 450 kg/ha, weeds 2-3 leaf stage, 3 weeks after application

SMILES	plant damage level, rice (indica rice huanghuazhan), post-emergence [1]	weeding effect in post-emergence stage, Digitaria sanguinalis (activity level) (Digitaria sanguinalis [2]; [9])	weeding effect in post-emergence stage, Leptochloa chinensis (activity level) (Leptochloa chinensis [3]; [9])	weeding effect in post-emergence stage, Echinochloa crusgalli (activity level) (Echinochloa crusgalli [4]; [9])	weeding effect in post-emergence stage, Amaranthus retroflexus L. (activity level) [5]	sealing effects on Digitaria sanguinalis, pre-emergence (Digitaria sanguinalis [6])	sealing effects on Leptochloa chinensis, pre-emergence (Leptochloa chinensis [7])	sealing effects on Abutilon theophrasti, pre-emergence (Abutilon theophrasti)	sealing effects on Echinochloa crusgalli, pre-emergence (Echinochloa crusgalli [8])	plant damage level, japonica rice, post-emergence (japonica rice; Dose 30 g/ha)	plant damage level, japonica rice, post-emergence (japonica rice; Dose 60 g/ha)	plant damage level, japonica rice, post-emergence (japonica rice; Dose 120 g/ha)	plant damage level, indica rice, post-emergence ([1]; Dose 30 g/ha)	plant damage level, indica rice, post-emergence ([1]; Dose 60 g/ha)	plant damage level, indica rice, post-emergence ([1]; Dose 120 g/ha)	safety for direct seeding of rice, pre-emergence (rice)	weeding effect in post-emergence stage, Digitaria sanguinalis (activity level) (Digitaria sanguinalis [2]; Dose 30 g/ha)	weeding effect in post-emergence stage, Digitaria sanguinalis (activity level) (Digitaria sanguinalis [2]; Dose 60 g/ha)	weeding effect in post-emergence stage, Digitaria sanguinalis (activity level) (Digitaria sanguinalis [2]; Dose 120 g/ha)	weeding effect in post-emergence stage, Leptochloa chinensis (activity level) (Leptochloa chinensis [3]; Dose 30 g/ha)	also measured
COc1nnc2c(Cl)c(C(=O)C3C(=O)CCCC3=O)ccn12 [Compound 114]	0 (Level 0: growth control rate is less than 5%)	5 (Level 5: growth control rate is above 85%)	5 (Level 5: growth control rate is above 85%)	5 (Level 5: growth control rate is above 85%)	5 (Level 5: growth control rate is above 85%)																
O=C(c1ccn2c(C3CC3)nnc2c1Cl)C1C(=O)C2CCC(C2)C1=O (centres unmarked) [Compound 274]	0 (Level 0: growth control rate is less than 5%)	5 (Level 5: growth control rate is above 85%)	5 (Level 5: growth control rate is above 85%)	5 (Level 5: growth control rate is above 85%)	5 (Level 5: growth control rate is above 85%)	excellent sealing effects	excellent sealing effects	excellent sealing effects	excellent sealing effects	0 (Level 0: growth control rate is less than 5%)	0 (Level 0: growth control rate is less than 5%)	0 (Level 0: growth control rate is less than 5%)	0 (Level 0: growth control rate is less than 5%)	0 (Level 0: growth control rate is less than 5%)	0 (Level 0: growth control rate is less than 5%)	safe and efficient	5 (Level 5: growth control rate is above 85%)	5 (Level 5: growth control rate is above 85%)	5 (Level 5: growth control rate is above 85%)	5 (Level 5: growth control rate is above 85%)	weeding effect in post-emergence stage, Leptochloa chinensis (activity level) (Leptochloa chinensis [3]; Dose 60 g/ha): 5 (Level 5: growth control rate is above 85%); weeding effect in post-emergence stage, Leptochloa chinensis (activity level) (Leptochloa chinensis [3]; Dose 120 g/ha): 5 (Level 5: growth control rate is above 85%); weeding effect in post-emergence stage, Echinochloa crusgalli (activity level) (Echinochloa crusgalli [4]; Dose 30 g/ha): 5 (Level 5: growth control rate is above 85%); weeding effect in post-emergence stage, Echinochloa crusgalli (activity level) (Echinochloa crusgalli [4]; Dose 60 g/ha): 5 (Level 5: growth control rate is above 85%); weeding effect in post-emergence stage, Echinochloa crusgalli (activity level) (Echinochloa crusgalli [4]; Dose 120 g/ha): 5 (Level 5: growth control rate is above 85%); weeding effect in post-emergence stage, Setaria viridis (activity level) (Setaria viridis; Dose 30 g/ha): 5 (Level 5: growth control rate is above 85%); weeding effect in post-emergence stage, Setaria viridis (activity level) (Setaria viridis; Dose 60 g/ha): 5 (Level 5: growth control rate is above 85%); weeding effect in post-emergence stage, Setaria viridis (activity level) (Setaria viridis; Dose 120 g/ha): 5 (Level 5: growth control rate is above 85%)
O=C1CCCC(=O)C1C(=O)c1ccn2c(C3CC3(F)F)nnc2c1Cl (centres unmarked) [Compound 87]	0 (Level 0: growth control rate is less than 5%)	4 (Level 4: growth control rate is greater than or equal to 60% and less than 85%)	5 (Level 5: growth control rate is above 85%)	4 (Level 4: growth control rate is greater than or equal to 60% and less than 85%)	5 (Level 5: growth control rate is above 85%)																
CSc1nnc2c(Cl)c(C(=O)C3C(=O)CCCC3=O)ccn12 [Compound 118]	0 (Level 0: growth control rate is less than 5%)	5 (Level 5: growth control rate is above 85%)	5 (Level 5: growth control rate is above 85%)	5 (Level 5: growth control rate is above 85%)	5 (Level 5: growth control rate is above 85%)																
O=C1CCCC(=O)C1C(=O)c1ccn2c(C3CC3)nnc2c1Cl [Compound 2]	0 (Level 0: growth control rate is less than 5%)	5 (Level 5: growth control rate is above 85%)	5 (Level 5: growth control rate is above 85%)	5 (Level 5: growth control rate is above 85%)	5 (Level 5: growth control rate is above 85%)	excellent sealing effects	excellent sealing effects	excellent sealing effects	excellent sealing effects	0 (Level 0: growth control rate is less than 5%)	0 (Level 0: growth control rate is less than 5%)	0 (Level 0: growth control rate is less than 5%)	0 (Level 0: growth control rate is less than 5%)	0 (Level 0: growth control rate is less than 5%)	0 (Level 0: growth control rate is less than 5%)	safe and efficient	5 (Level 5: growth control rate is above 85%)	5 (Level 5: growth control rate is above 85%)	5 (Level 5: growth control rate is above 85%)	5 (Level 5: growth control rate is above 85%)	weeding effect in post-emergence stage, Leptochloa chinensis (activity level) (Leptochloa chinensis [3]; Dose 60 g/ha): 5 (Level 5: growth control rate is above 85%); weeding effect in post-emergence stage, Leptochloa chinensis (activity level) (Leptochloa chinensis [3]; Dose 120 g/ha): 5 (Level 5: growth control rate is above 85%); weeding effect in post-emergence stage, Echinochloa crusgalli (activity level) (Echinochloa crusgalli [4]; Dose 30 g/ha): 5 (Level 5: growth control rate is above 85%); weeding effect in post-emergence stage, Echinochloa crusgalli (activity level) (Echinochloa crusgalli [4]; Dose 60 g/ha): 5 (Level 5: growth control rate is above 85%); weeding effect in post-emergence stage, Echinochloa crusgalli (activity level) (Echinochloa crusgalli [4]; Dose 120 g/ha): 5 (Level 5: growth control rate is above 85%); weeding effect in post-emergence stage, Setaria viridis (activity level) (Setaria viridis; Dose 30 g/ha): 5 (Level 5: growth control rate is above 85%); weeding effect in post-emergence stage, Setaria viridis (activity level) (Setaria viridis; Dose 60 g/ha): 5 (Level 5: growth control rate is above 85%); weeding effect in post-emergence stage, Setaria viridis (activity level) (Setaria viridis; Dose 120 g/ha): 5 (Level 5: growth control rate is above 85%)
